Test results as given in US9902736B2, “1-oxo/acylation-14-acylated oridonin derivative, preparation method therefor and application thereof” (HANGZHOU BENSHENG PHARMACEUTICAL CO., LTD., priority 2012, dated 2018).
Converted amounts (≈) assume the structure as drawn.

Experiments:
K562/ADR = test: Leukemia cell growth inhibition, MTT, 72 h; format: cell-based; details: Homo sapiens
Method in brief: (§1)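 Growth inhibition was scored by MTT after 72 h exposure to a concentration range of oridonin derivatives (37° C, 5% CO2). Compound went on the day after seeding 6000 cells per well of K562/ADR, H9, Jurkat or Kasumi-1.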

Kasumi-1 = test: Leukemia cell growth inhibition, MTT, 72 h; format: cell-based; details: Homo sapiens
Method in brief: as §1

H9 = test: Leukemia cell growth inhibition, MTT, 72 h; format: cell-based, human; details: Homo sapiens, H9; 72 h, MTT
Method in brief: as §1

Jurkat = test: Leukemia cell growth inhibition, MTT, 72 h; format: cell-based, human; details: Homo sapiens, Jurkat; 72 h, MTT
Method in brief: as §1

NB4 = test: Leukemia cell growth inhibition, MTT, 72 h; format: cell-based, human; details: Homo sapiens, NB-4; 72 h, MTT
Method in brief: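 Viability determined by MTT following a 72-hour, 37° C, 5% CO2 incubation with test compounds at different concentrations, added the day after seeding 6000 cells per well.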

RPMI 8226 = test: Multiple myeloma cell growth inhibition, MTT, 72 h; format: cell-based; details: Homo sapiens
Method in brief: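 Growth inhibition by MTT after 72 h drug exposure (37 °C, 5% CO2) over a concentration range of oridonin derivatives. RPMI 8226 cells plated at 6000 per well and dosed the following day.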

CNE = test: Solid tumor cell growth inhibition, MTT, 72 h; format: cell-based, human; details: Homo sapiens, CNE; 72 h, MTT
Method in brief: (§2)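 Viability was read by MTT after 72 hours' exposure to varied concentrations of oridonin derivatives at 37° C, 5% CO2. Beforehand, 6000 cells per well were preincubated 24 hours in DMEM high glucose containing 10% fetal bovine serum.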

Hela = test: Solid tumor cell growth inhibition, MTT, 72 h; format: cell-based, human; details: Homo sapiens, HeLa; 72 h, MTT
Method in brief: as §2

Hep-2 = test: Solid tumor cell growth inhibition, MTT, 72 h; format: cell-based, human; details: Homo sapiens, HEp-2; 72 h, MTT
Method in brief: as §2

MGC-803 = test: Solid tumor cell growth inhibition, MTT, 72 h; format: cell-based, human; details: Homo sapiens, MGC-803; 72 h, MTT
Method in brief: as §2

A549 = test: Solid tumor cell growth inhibition, MTT, 72 h; format: cell-based; details: Homo sapiens
Method in brief: as §2

Becap-37 = test: Solid tumor cell growth inhibition, MTT, 72 h; format: cell-based; details: Homo sapiens
Method in brief: as §2

CaEs-17 = test: Solid tumor cell growth inhibition, MTT, 72 h; format: cell-based; details: Homo sapiens, CaEs17
Method in brief: as §2

Hep G2 = test: Solid tumor cell growth inhibition, MTT, 72 h; format: cell-based; details: Homo sapiens, HepG2
Method in brief: as §2

MG-63 = test: Solid tumor cell growth inhibition, MTT, 72 h; format: cell-based; details: Homo sapiens
Method in brief: as §2

PANC-1 = test: Solid tumor cell growth inhibition, MTT, 72 h; format: cell-based; details: Homo sapiens
Method in brief: as §2

PC-3 = test: Solid tumor cell growth inhibition, MTT, 72 h; format: cell-based; details: Homo sapiens
Method in brief: as §2

RKO = test: Solid tumor cell growth inhibition, MTT, 72 h; format: cell-based; details: Homo sapiens
Method in brief: as §2

SK-OV-3 = test: Solid tumor cell growth inhibition, MTT, 72 h; format: cell-based; details: Homo sapiens, SK-OV-3, 72 h, MTT; for IC50: read-out: IC50 SK-OV-3; for IC90: read-out: IC90 SK-OV-3
Method in brief: as §2

U87-MG = test: Solid tumor cell growth inhibition, MTT, 72 h; format: cell-based; details: Homo sapiens, U-87 MG
Method in brief: as §2

C=C1C(=O)[C@]23[C@H](OC(=O)c4ccccc4Br)[C@H]1CC[C@H]2[C@@]12CO[C@@]3(O)[C@@H](O)[C@@H]1C(C)(C)CCC2=O [BS-OR-020]
IC50 (K562/ADR): 0.73 µg/mL (≈ 1.34 µM)
IC90 (K562/ADR): 2.31 µg/mL (≈ 4.24 µM)
IC50 (Kasumi-1): 0.76 µg/mL (≈ 1.39 µM)
IC90 (Kasumi-1): 2.85 µg/mL (≈ 5.23 µM)
IC50 (H9): 0.89 µg/mL (≈ 1.63 µM)
IC90 (H9): 1.84 µg/mL (≈ 3.37 µM)
IC50 (Jurkat): 0.88 µg/mL (≈ 1.61 µM)
IC90 (Jurkat): 4.31 µg/mL (≈ 7.9 µM)
IC50 (NB4): 0.27 µg/mL (≈ 0.495 µM)
IC90 (NB4): 1.34 µg/mL (≈ 2.46 µM)
IC50 (RPMI 8226): 0.59 µg/mL (≈ 1.08 µM)
IC90 (RPMI 8226): 3.84 µg/mL (≈ 7.04 µM)
IC50 (CNE): 1.8 µg/mL (≈ 3.3 µM)
IC90 (CNE): 7.21 µg/mL (≈ 13.2 µM)
IC50 (Hela): 1.79 µg/mL (≈ 3.28 µM)
IC90 (Hela): 7.19 µg/mL (≈ 13.2 µM)
IC50 (Hep-2): 1.92 µg/mL (≈ 3.52 µM)
IC90 (Hep-2): 7.4 µg/mL (≈ 13.6 µM)
IC50 (MGC-803): 1.65 µg/mL (≈ 3.03 µM)
IC90 (MGC-803): 8.86 µg/mL (≈ 16.2 µM)
IC50 (A549): 2.76 µg/mL (≈ 5.06 µM)
IC90 (A549): 5.78 µg/mL (≈ 10.6 µM)
IC50 (Becap-37): 1.31 µg/mL (≈ 2.4 µM)
IC90 (Becap-37): 3.95 µg/mL (≈ 7.24 µM)
IC50 (CaEs-17): 1.78 µg/mL (≈ 3.26 µM)
IC90 (CaEs-17): 7.28 µg/mL (≈ 13.3 µM)
IC50 (Hep G2): 1.68 µg/mL (≈ 3.08 µM)
IC90 (Hep G2): 7.35 µg/mL (≈ 13.5 µM)
IC50 (MG-63): 0.76 µg/mL (≈ 1.39 µM)
IC90 (MG-63): 4.52 µg/mL (≈ 8.29 µM)
IC50 (PANC-1): 2.32 µg/mL (≈ 4.25 µM)
IC90 (PANC-1): 6.09 µg/mL (≈ 11.2 µM)
IC50 (PC-3): 2.56 µg/mL (≈ 4.69 µM)
IC90 (PC-3): 7.07 µg/mL (≈ 13 µM)
IC50 (RKO): 0.84 µg/mL (≈ 1.54 µM)
IC90 (RKO): 1.94 µg/mL (≈ 3.56 µM)
IC50 (SK-OV-3): 2.56 µg/mL (≈ 4.69 µM)
IC90 (SK-OV-3): 7.07 µg/mL (≈ 13 µM)
IC50 (U87-MG): 1.19 µg/mL (≈ 2.18 µM)
IC90 (U87-MG): 3.69 µg/mL (≈ 6.77 µM)

C=C1C(=O)[C@]23[C@H](OC(=O)C4CCN(S(=O)(=O)c5ccccc5)CC4)[C@H]1CC[C@H]2[C@@]12CO[C@@]3(O)[C@@H](O)[C@@H]1C(C)(C)CCC2=O [BS-OR-032]
IC50 (K562/ADR): 1.09 µg/mL (≈ 1.78 µM)
IC90 (K562/ADR): 2.97 µg/mL (≈ 4.84 µM)
IC50 (Kasumi-1): 1.5 µg/mL (≈ 2.44 µM)
IC90 (Kasumi-1): 2.92 µg/mL (≈ 4.76 µM)
IC50 (H9): 6.71 µg/mL (≈ 10.9 µM)
IC90 (H9): 12.7 µg/mL (≈ 20.7 µM)
IC50 (Jurkat): 0.93 µg/mL (≈ 1.52 µM)
IC90 (Jurkat): 6.15 µg/mL (≈ 10 µM)
IC50 (NB4): 4.09 µg/mL (≈ 6.66 µM)
IC90 (NB4): 9.77 µg/mL (≈ 15.9 µM)
IC50 (RPMI 8226): 1.34 µg/mL (≈ 2.18 µM)
IC90 (RPMI 8226): 2.95 µg/mL (≈ 4.81 µM)
IC50 (CNE): > 16 µg/mL
IC90 (CNE): > 16 µg/mL
IC50 (Hela): 2.63 µg/mL (≈ 4.29 µM)
IC90 (Hela): 5.67 µg/mL (≈ 9.24 µM)
IC50 (Hep-2): > 16 µg/mL
IC90 (Hep-2): > 16 µg/mL
IC50 (MGC-803): 12.7 µg/mL (≈ 20.7 µM)
IC90 (MGC-803): > 16 µg/mL
IC50 (A549): 5.68 µg/mL (≈ 9.25 µM)
IC90 (A549): 9.98 µg/mL (≈ 16.3 µM)
IC50 (Becap-37): 2.93 µg/mL (≈ 4.77 µM)
IC90 (Becap-37): 10.5 µg/mL (≈ 17.1 µM)
IC50 (CaEs-17): 1.62 µg/mL (≈ 2.64 µM)
IC90 (CaEs-17): 11.7 µg/mL (≈ 19.1 µM)
IC50 (Hep G2): 3.17 µg/mL (≈ 5.17 µM)
IC90 (Hep G2): ≥ 17.2 µg/mL
IC50 (MG-63): 0.98 µg/mL (≈ 1.6 µM)
IC90 (MG-63): 1.97 µg/mL (≈ 3.21 µM)
IC50 (PANC-1): 3.61 µg/mL (≈ 5.88 µM)
IC90 (PANC-1): 7.88 µg/mL (≈ 12.8 µM)
IC50 (PC-3): 3.07 µg/mL (≈ 5 µM)
IC90 (PC-3): 5.41 µg/mL (≈ 8.81 µM)
IC50 (RKO): 0.89 µg/mL (≈ 1.45 µM)
IC90 (RKO): 1.99 µg/mL (≈ 3.24 µM)
IC50 (SK-OV-3): 3.07 µg/mL (≈ 5 µM)
IC90 (SK-OV-3): 5.41 µg/mL (≈ 8.81 µM)
IC50 (U87-MG): 1.26 µg/mL (≈ 2.05 µM)
IC90 (U87-MG): 4.56 µg/mL (≈ 7.43 µM)
